Laboratory results reported in article PMC10803253, “Structural insights into the iron nitrogenase complex” (Nature Structural & Molecular Biology, 2023).

How the values were obtained:
[1] = target: T1, Fe nitrogenase reductase component AnfH2 in the Anf(DGK)2(H2)2 complex (Rhodobacter capsulatus, UniProt D5ANJ6); assay: cryo-EM structure ([…] Å); type: binding; conditions: covalent (Cys97 and Cys132 of two AnfH subunits); co-purified
T1 construct: gene anfH; N-terminal His6-tag on AnfH, C-terminal Strep-tag II on AnfD, no linkers; plasmid expression in R. capsulatus MM0436; AlF3-trapped Anf(DGK)2(H2)2, ~360 kDa by mass photometry; with Nitrogenase iron-iron protein alpha chain; Nitrogenase iron-iron protein beta chain; Nitrogenase iron-iron protein delta chain

[2] = target: T2, Fe nitrogenase catalytic component, AnfD FeFeco site, in the Anf(DGK)2(H2)2 complex (Rhodobacter capsulatus, UniProt D5ANJ7); assay: cryo-EM structure ([…] Å); type: binding; conditions: bidentate ligand of FeFeco iron Fe8 via 2-hydroxyl and 2-carboxyl; co-purified; ADP·AlF3-trapped complex
T2 construct: C-terminal Strep-tag II on AnfD, N-terminal His6-tag on AnfH, no linkers; plasmid expression in R. capsulatus MM0436; AlF3-trapped Anf(DGK)2(H2)2; with Nitrogenase iron-iron protein beta chain; Nitrogenase iron-iron protein delta chain; Nitrogenase iron protein (iron-iron nitrogenase reductase)
T2 sequence (D5ANJ9 entry or part of it): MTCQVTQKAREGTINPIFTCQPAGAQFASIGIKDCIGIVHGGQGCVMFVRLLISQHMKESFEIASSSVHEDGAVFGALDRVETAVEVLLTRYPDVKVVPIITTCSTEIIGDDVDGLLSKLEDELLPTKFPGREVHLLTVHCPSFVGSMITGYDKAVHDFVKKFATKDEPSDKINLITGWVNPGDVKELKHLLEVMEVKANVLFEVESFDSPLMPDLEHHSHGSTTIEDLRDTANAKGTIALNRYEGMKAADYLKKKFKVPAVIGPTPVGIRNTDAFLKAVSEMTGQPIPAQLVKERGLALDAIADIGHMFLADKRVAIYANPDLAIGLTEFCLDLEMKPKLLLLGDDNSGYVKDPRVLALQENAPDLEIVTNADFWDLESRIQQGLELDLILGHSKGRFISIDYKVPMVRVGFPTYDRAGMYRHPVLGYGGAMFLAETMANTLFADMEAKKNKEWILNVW
T2 sequence (D5ANJ6 entry or part of it, further chain): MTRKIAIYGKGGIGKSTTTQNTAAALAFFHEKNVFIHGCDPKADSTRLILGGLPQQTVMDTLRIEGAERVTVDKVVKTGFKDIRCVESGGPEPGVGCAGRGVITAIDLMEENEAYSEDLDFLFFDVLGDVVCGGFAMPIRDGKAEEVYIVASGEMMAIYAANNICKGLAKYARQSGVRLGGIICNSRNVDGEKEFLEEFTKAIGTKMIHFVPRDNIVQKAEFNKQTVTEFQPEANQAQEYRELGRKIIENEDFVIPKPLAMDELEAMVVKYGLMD
T2 sequence (D5ANJ7 entry or part of it): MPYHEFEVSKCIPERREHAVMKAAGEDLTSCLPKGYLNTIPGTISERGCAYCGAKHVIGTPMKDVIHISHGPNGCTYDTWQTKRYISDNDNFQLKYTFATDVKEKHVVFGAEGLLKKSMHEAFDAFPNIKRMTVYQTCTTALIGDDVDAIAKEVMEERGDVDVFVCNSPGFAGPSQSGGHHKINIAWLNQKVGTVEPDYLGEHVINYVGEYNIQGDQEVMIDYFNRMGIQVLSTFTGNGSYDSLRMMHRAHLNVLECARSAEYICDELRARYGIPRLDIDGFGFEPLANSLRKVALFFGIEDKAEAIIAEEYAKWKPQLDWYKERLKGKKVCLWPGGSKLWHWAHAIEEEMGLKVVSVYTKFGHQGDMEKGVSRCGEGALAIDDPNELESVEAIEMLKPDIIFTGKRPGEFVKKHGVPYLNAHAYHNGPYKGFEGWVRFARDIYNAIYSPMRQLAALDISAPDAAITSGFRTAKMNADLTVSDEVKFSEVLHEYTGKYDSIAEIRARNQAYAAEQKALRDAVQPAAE
T2 sequence (D5ANJ8 entry or part of it, further chain): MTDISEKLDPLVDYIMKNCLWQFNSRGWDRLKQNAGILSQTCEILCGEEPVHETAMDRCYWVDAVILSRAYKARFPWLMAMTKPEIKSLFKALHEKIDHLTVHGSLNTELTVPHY

T1 sequence (D5ANJ6 1-275): as the sequence (D5ANJ6 entry or part of it, further chain) above
T1 sequence (D5ANJ7 1-527 partner): as the sequence (D5ANJ7 entry or part of it) above
T1 sequence (D5ANJ9 1-460 partner): as the sequence (D5ANJ9 entry or part of it) above
T1 sequence (D5ANJ8 1-115 partner): as the sequence (D5ANJ8 entry or part of it, further chain) above

SMILES	cryo-EM structure (2.35 Å) [1]	cryo-EM structure (2.35 Å) [2]
[S]12[Fe]3[S]4[Fe]1[S]1[Fe]2[S]3[Fe]41 [[Fe4S4] cluster]	we observed an [Fe4S4] cluster coordinated by Cys97 and Cys132	
O=C(O)CC[C@@](O)(CC(=O)O)C(=O)O [(R)-homocitrate]		additionally coordinated by a bidentate (R)-homocitrate ligand that binds the iron atom
